Assay results as given in patent US9630931B2, “Pharmaceutically active pyrazine derivatives” (Sentinel Oncology Limited, priority 2011, dated 2017).
pIC50: −log10 of the molar value. Structures can show the parent of a compound that is named as a salt.

How the values were obtained:
[1] = test system: triple negative negative breast cancer cells; conditions: cited from earlier work
[2] = test system: thirty ovarian cancer cell lines; conditions: cited from earlier work
[3] = test system: MYC oncogene driven murine spontaneous cancer model; conditions: cited from earlier work
MOLM-13 cells = experiment: Inhibition of cell growth in MOLM-13 cells (Alamar blue, 72 h); assay type: cell-based; conditions: Homo sapiens, 72 h incubation
Protocol: (§1) Studies were carried out to test the effect of compounds on the inhibition of cell growth in MOLM-13 and MV4-11 cells.
(§2) The following protocol was used:
(§3) (a) Cells were seeded in 96-well plates at cell densities of 2500/well (MOLM-13) and 10,000/well (MV4-11). Cells were then incubated overnight prior to addition of compound or vehicle control.
(§4) (b) Test compounds were prepared from 10 mM DMSO stocks to give a final concentration range of 10 μM, 3 μM, 1 μM, 0.3 μM, […], 0.03 μM, 0.01 μM, […] vehicle control. The DMSO content was constant at 0.1%.
(§5) (c) Test compounds were incubated with the cells for 72 h at 37° C. 5% CO2 in a humidified atmosphere.
(§6) (d) Alamar blue 10% (v/v) was then added and incubated for a further 4 h, and fluorescent product detected using the BMG FLUOstar plate reader.
(§7) (e) Media only background values were subtracted and the data analysed using a 4-parameter logistic equation in GraphPad Prism.

Chk-1 kinase = Chk-1 kinase (Homo sapiens (Human), UniProt O14757); experiment: Chk-1 kinase inhibiting activity (33P-ATP radiometric filter assay, CHKtide substrate); assay type: biochemical; conditions: recombinant full length GST-tagged CHK-1 0.5 nM, CHKtide 20 μM, 120 minutes at room temperature; read-out: IC50 against Chk-1 kinase
Chain of Chk-1 kinase (O14757 whole entry): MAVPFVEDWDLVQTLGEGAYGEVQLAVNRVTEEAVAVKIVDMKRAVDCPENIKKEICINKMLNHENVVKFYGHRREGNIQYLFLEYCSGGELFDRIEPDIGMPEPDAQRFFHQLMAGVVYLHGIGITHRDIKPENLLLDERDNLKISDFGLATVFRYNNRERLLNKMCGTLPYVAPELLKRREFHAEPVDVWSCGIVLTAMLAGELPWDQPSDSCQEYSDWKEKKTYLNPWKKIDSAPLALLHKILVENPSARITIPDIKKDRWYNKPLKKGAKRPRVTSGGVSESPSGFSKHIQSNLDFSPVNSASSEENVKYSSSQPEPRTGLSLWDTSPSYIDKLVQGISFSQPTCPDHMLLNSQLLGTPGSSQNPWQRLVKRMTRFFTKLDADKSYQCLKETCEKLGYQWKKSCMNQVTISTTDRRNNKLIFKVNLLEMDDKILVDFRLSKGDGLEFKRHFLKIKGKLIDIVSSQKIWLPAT
Protocol: The compounds of the invention were tested for activity against Chk-1 kinase using the materials and protocols set out below.
Base Reaction buffer: 20 mM Hepes (pH 7.5), 10 mM MgCl2, 1 mM EGTA, 0.02% Brij35, 0.02 mg/ml BSA, 0.1 mM Na3VO4, 2 mM DTT, 1% DMSO
Required cofactors are added individually to each kinase reaction
(i) Prepare indicated substrate in freshly prepared Base Reaction Buffer
(ii) Deliver any required cofactors to the substrate solution above
(iii) Deliver indicated kinase into the substrate solution and gently mix
(iv) Deliver compounds in DMSO into the kinase reaction mixture
(v) Deliver ^33P-ATP (specific activity 0.01 μCi/μl final) into the reaction mixture to initiate the reaction.
(vi) Incubate kinase reaction for 120 minutes at room temperature
(vii) Reactions are spotted onto P81 ion exchange paper (Whatman #3698-915)
(viii) Wash filters extensively in 0.1% phosphoric acid.
(ix) Dry filters and measure counts in scintillation counter
Recombinant full length construct, N-terminal GST tagged, purified from insect cells.
No special measures were taken to activate this kinase.
Final concentration in assay=0.5 nM
Peptide sequence: [[…]]
Final concentration in assay=20 μM
No additional cofactors are added to the reaction mixture
From the results obtained by following the above protocol, the IC50 values against Chk-1 kinase of a number of the compounds of the Examples were determined and these are shown in Table 3.

MV4-11 cells = experiment: Inhibition of cell growth in MV4-11 cells (Alamar blue, 72 h); assay type: cell-based; conditions: Homo sapiens, 72 h incubation
Protocol: as §1, §2, §3, §4, §5, §6, §7

For `Cn1cc(-c2[nH]c3cc(NC(=O)[C@H](N)C4CCCCC4)cc4c3c2C=NNC4=O)cn1` [PF-00477736], the “growth of triple negative breast cancer cells” value [1] is listed as “inhibits the growth”, the “growth of ovarian cancer cell lines” value [2] is listed as “inhibits the growth” and the “single agent activity in MYC oncogene driven murine spontaneous cancer model” value [3] is listed as “selective single agent activity”.

Compound `COc1cc(CCNCCN2CCOCC2)c(Cl)cc1NC(=O)Nc1cnc(C#N)cn1` [Example 7, 1-{5-Chloro-2-methoxy-4-[2-(2-morpholin-4-yl-ethylamino)-ethyl]-phenyl}-3-(5-cyano-pyrazin-2-yl)-urea hydrochloride] has a pIC50 (MOLM-13 cells) of 6.95, a pIC50 (Chk-1 kinase) of 9.10 and a pIC50 (MV4-11 cells) of 6.53.

In the case of `COc1cc(CCNC[C@@H]2CNCCO2)c(Cl)cc1NC(=O)Nc1cnc(C#N)cn1` [Example 3, 1-(5-Chloro-2-methoxy-4-{2-[((R)-1-morpholin-2-ylmethyl)-amino]-ethyl}-phenyl)-3-(5-cyano-pyrazin-2-yl)-urea hydrochloride], the pIC50 (MOLM-13 cells) was 7.09, the pIC50 (Chk-1 kinase) was 9.85 and the pIC50 (MV4-11 cells) was 6.76.

`COc1cc(CCN[C@@H](C)C2CCN(C(=O)C3CC3)CC2)c(Cl)cc1NC(=O)Nc1cnc(C#N)cn1` [Example 10, 1-(5-Chloro-4-{2-[(S)-1-(1-cyclopropane-carbonyl-piperidin-4-yl)-ethylamino]-ethyl}-2-methoxy-phenyl)-3-(5-cyano-pyrazin-2-yl)-urea hydrochloride] gave a pIC50 (MOLM-13 cells) of 7.46, a pIC50 (Chk-1 kinase) of 9.19 and a pIC50 (MV4-11 cells) of 7.10.
